Earlier results as cited in patent US20150209442A1, “METHOD TO IMPROVE PHARMACOKINETICS OF DRUGS” (The Board of Regents of the University of Texas System, priority 2012, published 2015).

Assays:
TRPV1 = details: spinal cord; completely reversible by a TRPV1 antagonist

| bound to plasma proteins [%] | free (unbound) share of total concentration in plasma (plasma) [%] | Molecule | tactile allodynia (TRPV1) |
| --- | --- | --- | --- |
|  |  | 9-hydroxyoctadecadienoic acid [9-HODE] | results in tactile allodynia |
|  |  | COc1cc(CNC(=O)CCCC/C=C/C(C)C)ccc1O [capsaicin] | results in tactile allodynia |
| > 99 | ~0.1 | CC(C(=O)O)c1ccc(-c2ccccc2)c(F)c1 (stereo not shown) [flurbiprofen] |  |
